# Experimental data: the supplement of paper PMC4862054
# What was measured:
# CAL-120 [1] = test: drug sensitivity score (DSS), CellTox Green (DSS (AUC-based score)); higher = stronger drug effect (viability inhibition or cytotoxicity); extreme values may be limits of the assay; conditions: incubation time: 72 h
# Summary of the method: (§1)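 Breast cancer cell lines were seeded in 20 µl suspension into 384-well plates already holding compound and incubated for 72 h. Each compound was tested at 5 concentrations in 10-fold steps across its own 10,000-fold range. Plates were normalised to 0.1 % DMSO and a positive kill control after CellTox Green and then CellTiter-Glo readings. The area under the fitted dose-response curve served as the basis for the drug sensitivity score.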
# HCC1143 [2] = test: as above; conditions: incubation time: 72 h
# Summary of the method: as §1
# HCC1937 [3] = test: as above; conditions: incubation time: 72 h
# Summary of the method: as §1
# MDA-MB-453 [4] = test: as above; conditions: incubation time: 72 h
# Summary of the method: as §1
# CAL-148 [5] = test: as above; conditions: incubation time: 72 h
# Summary of the method: as §1
# MDA-MB-231 [6] = test: as above; conditions: incubation time: 72 h
# Summary of the method: as §1
# CAL-85-1 [7] = test: as above; conditions: incubation time: 72 h
# Summary of the method: as §1
# MCF-10A = test: as above; conditions: incubation time: 72 h
# Summary of the method: as §1
# MFM-223 [8] = test: as above; conditions: incubation time: 72 h
# Summary of the method: as §1
# BT-474 [9] = test: as above; conditions: incubation time: 72 h
# Summary of the method: as §1
# CAL-120 [10] = test: normalised viability (% of control), CellTiter-Blue; higher = more viable cells (about 100 = DMSO control); conditions: 100 nM; incubation time: 72 h
# Procedure: (§2)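 DSRT, CellTiter-Blue viability, 72 h incubation. Signal is normalised to DMSO and benzethonium chloride controls. Value is the normalised response at dose 3.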
# HCC1143 [11] = test: as above; conditions: 100 nM; incubation time: 72 h
# Procedure: as §2
# HDQ-P1 = test: as above; conditions: 10 nM; incubation time: 72 h
# Procedure: as §2
# MDA-MB-468 = test: as above; conditions: 100 nM; incubation time: 72 h
# Procedure: as §2
# HCC1937 [12] = test: as above; conditions: 100 nM; incubation time: 72 h
# Procedure: as §2
# MDA-MB-453 [13] = test: as above; conditions: 10 nM; incubation time: 72 h
# Procedure: as §2
# CAL-51 = test: as above; conditions: 10 nM; incubation time: 72 h
# Procedure: as §2
# HCC1599 = test: as above; conditions: 100 nM; incubation time: 72 h
# Procedure: as §2
# DU-4475 = test: as above; conditions: 10 nM; incubation time: 72 h
# Procedure: as §2
# BT-549 = test: as above; conditions: 100 nM; incubation time: 72 h
# Procedure: as §2
# CAL-148 [14] = test: as above; conditions: 10 nM; incubation time: 72 h
# Procedure: as §2
# MDA-MB-231 [15] = test: as above; conditions: 100 nM; incubation time: 72 h
# Procedure: as §2
# CAL-85-1 [16] = test: as above; conditions: 10 nM; incubation time: 72 h
# Procedure: as §2
# Hs578T = test: as above; conditions: 100 nM; incubation time: 72 h
# Procedure: as §2
# SK-BR-3 = test: as above; conditions: 100 nM; incubation time: 72 h
# Procedure: as §2
# MFM-223 [17] = test: as above; conditions: 100 nM; incubation time: 72 h
# Procedure: as §2
# MDA-MB-436 = test: as above; conditions: 100 nM; incubation time: 72 h
# Procedure: as §2
# BT-474 [18] = test: as above; conditions: 100 nM; incubation time: 72 h
# Procedure: as §2
SMILES,drug sensitivity score (CAL-120 [1]),drug sensitivity score (HCC1143 [2]),drug sensitivity score (HCC1937 [3]),drug sensitivity score (MDA-MB-453 [4]),drug sensitivity score (CAL-148 [5]),drug sensitivity score (MDA-MB-231 [6]),drug sensitivity score (CAL-85-1 [7]),drug sensitivity score (MCF-10A),drug sensitivity score (MFM-223 [8]),drug sensitivity score (BT-474 [9]),normalised viability (CAL-120 [10]) [%],normalised viability (HCC1143 [11]) [%],normalised viability (HDQ-P1) [%],normalised viability (MDA-MB-468) [%],normalised viability (HCC1937 [12]) [%],normalised viability (MDA-MB-453 [13]) [%],normalised viability (CAL-51) [%],normalised viability (HCC1599) [%],normalised viability (DU-4475) [%],normalised viability (BT-549) [%],normalised viability (CAL-148 [14]) [%],normalised viability (MDA-MB-231 [15]) [%],normalised viability (CAL-85-1 [16]) [%],normalised viability (Hs578T) [%],normalised viability (SK-BR-3) [%],normalised viability (MFM-223 [17]) [%],normalised viability (MDA-MB-436) [%],normalised viability (BT-474 [18]) [%]
c1ccc2c(CCNc3ccc(Nc4ccncc4)cc3)c[nH]c2c1 [Serdemetan],0,0,0,0,6.44,2.18,0,0,1.92,0,81.9,76,106,108,95.2,96.7,104,136,103,113,83.5,85.8,102,77.2,79.7,92.4,113,111
CC(C)C[C@@H](C(=O)N[C@H](C(=O)OC1CCCC1)c1ccccc1)[C@H](O)C(=O)NO [Tosedostat],13.6,1.52,0,0,0,26.6,21.8,0,0,2.81,66.8,89.3,113,64.6,67.9,99.1,101,102,79.7,72.7,91.2,72.6,89.4,94.2,88.7,79.8,96.2,110
COc1cc2/c(=N/c3ccc(Br)cc3F)nc[nH]c2cc1OCC1CCN(C)CC1 [Vandetanib],0,0,0,0,0,3.15,0,0,0,0,98.3,111,76.7,93.8,81.8,104,99.3,96.3,110,89,92,94,104,67.8,63.8,112,71.3,90.6
COCC[n+]1c2c(n(Cc3cnccn3)c1C)C(=O)c1ccccc1C2=O [YM155],39,23.5,29.5,12.2,29.4,30.1,42.2,34.7,11.4,33.6,5.35,12.4,64.2,0.74,3.81,44.7,70.5,10,110,34,61.4,1.71,29.7,47.6,1.25,26.1,2.36,1.04
